One test concerns NCI-H460. Description: Cytotoxicity against human H460 cells after 72 hrs by MTT assay. It counts as cell-based. To be noted: NCI-H460, 72 h.
A short description of test [1]: Inhibition of ABCG2 in human H460/MX20 cells assessed as potentiation of mitoxantrone induced antiproliferative activity by measuring mitoxantrone IC50 at 10 uM preincubated for 2 hrs followed by mitoxantrone addition measured after 72 hrs by MTT assay (reference value: 6.161 +/- 0.172 microM).
The nature of test [2]: Resistance index, ratio of mitoxantrone IC50 for human H460/MX20 cells to mitoxantrone IC50 for human H460 cells at 3 uM (reference value: 28.66).
A short description of test [3]: Cytotoxicity against human NCI-H460/MX20 cells after 72 hrs by MTT assay. It counts as cell-based. Conditions: NCI-H460/MX20, 72 h. (Tetrazolium assays rely on reduction of a dye to a coloured formazan, in cell work by metabolically active cells.)
Test [4] is described as follows: Resistance index, ratio of mitoxantrone IC50 for human H460/MX20 cells to mitoxantrone IC50 for human H460 cells at 10 uM (reference value: 28.66).
Test [5] is described as follows: Resistance index, ratio of mitoxantrone IC50 for human H460/MX20 cells to mitoxantrone IC50 for human H460 cells at 1 uM (reference value: 28.66).
A short description of test [6]: Inhibition of ABCG2 in human H460/MX20 cells assessed as potentiation of mitoxantrone induced antiproliferative activity by measuring mitoxantrone IC50 at 3 uM preincubated for 2 hrs followed by mitoxantrone addition measured after 72 hrs by MTT assay (reference value: 6.161 +/- 0.172 microM).
A short description of test [7]: Inhibition of ABCG2 in human H460/MX20 cells assessed as potentiation of mitoxantrone induced antiproliferative activity by measuring mitoxantrone IC50 at 1 uM preincubated for 2 hrs followed by mitoxantrone addition measured after 72 hrs by MTT assay (reference value: 6.161 +/- 0.172 microM).

For the molecule `COc1cccc(-n2nnc(-c3ccccc3NC(=O)c3ccc([N+](=O)[O-])cc3)n2)c1`, the IC50 (usually the concentration that inhibits the measured activity by half) with NCI-H460 was greater than 100 µM; in test [1], 0.307 µM; in test [3], greater than 100 µM. The “Ratio IC50” value in test [2] is recorded as 1.8; in test [4] it was 1.43; in test [5], 2.72.

As to `COc1ccc(-n2nnc(-c3ccccc3NC(=O)c3ccc([N+](=O)[O-])cc3)n2)cc1`, the figures for the IC50 (with NCI-H460; in test [3]) were 24.7 µM and 27.4 µM, respectively. Further, the “Ratio IC50” value came out at 2.49 in test [2], 1.76 in test [4] and 2.73 in test [5].

As to `COc1ccc(C(=O)Nc2ccccc2-c2nnn(-c3ccc(OC)cc3)n2)cc1`, the IC50 (in the test on NCI-H460; in test [3]) was greater than 100 µM in each case. The “Ratio IC50” value in test [2] is on record as 2.35; in test [4], 2.29; in test [5] it was 3.47.

Turning to `COc1ccc(-n2nnc(-c3ccccc3NC(=O)Nc3ccc([N+](=O)[O-])cc3)n2)cc1`, the IC50 turned out to be 21.7 µM in the test on NCI-H460 and 28.5 µM in test [3]. For the same molecule, the “Ratio IC50” value in test [2] is 2.52; in test [4], 1.54; in test [5] it was 3.34.

`O=C(Nc1ccc([N+](=O)[O-])cc1)Nc1ccccc1C(=O)Nc1ccc(C(F)(F)F)cc1`: the IC50 (in the test with NCI-H460; in test [3]) was greater than 100 µM each time. Moreover, the “Ratio IC50” value in test [2] was 2.81; in test [4], 2.12; in test [5], 3.31.

Regarding `COc1cccc(-n2nnc(-c3ccccc3NC(=O)c3ccc(N=[N+]=[N-])cc3)n2)c1`, the IC50 turned out to be 20.3 µM in the test with NCI-H460 and 21.5 µM in test [3]. Besides, the “Ratio IC50” value stood at 6.98 in test [2], 5.89 in test [4] and 7.51 in test [5].

For the molecule `COc1cccc(-n2nnc(-c3ccccc3NC(=O)c3ccccc3[N+](=O)[O-])n2)c1`, the results for the IC50 (in the test with NCI-H460; in test [3]; in test [6]) were 38.9 µM, 44.7 µM and 1.32 µM, respectively. In addition, the “Ratio IC50” value in test [2] is on record as 6.14; in test [4], 5.12; in test [5], 8.74.

As to `COc1cccc(-n2nnc(-c3ccccc3NC(=O)Nc3ccccc3[N+](=O)[O-])n2)c1`, the IC50 with NCI-H460 was greater than 100 µM; in test [7], 1.172 µM; in test [3], greater than 100 µM. Moreover, the “Ratio IC50” value in test [2] was determined as 4.55; in test [4], 4.1; in test [5], 5.45.

In the case of `CCCc1ccc(NC(=O)c2ccccc2NC(=O)c2cccc([N+](=O)[O-])c2)cc1`, the IC50 in the test on NCI-H460 is greater than 100 µM; in test [1], 0.512 µM; in test [7] it was 0.785 µM; in test [3], greater than 100 µM; in test [6], 0.727 µM. In addition, the “Ratio IC50” value in test [2] amounted to 3.38; in test [4] it was 2.38; in test [5], 3.65.

As to `COc1ccc(NC(=O)Nc2ccccc2-c2nnn(-c3ccc(OC)cc3)n2)cc1`, the IC50 in the test with NCI-H460 turned out to be 52.5 µM; in test [1], 0.355 µM; in test [3], 57.4 µM; in test [6], 0.382 µM. The “Ratio IC50” value is on record as 1.78 in test [2], 1.56 in test [4] and 2.06 in test [5].

On to `COc1cccc(-n2nnc(-c3ccccc3NC(=O)Nc3ccc(N=C=S)cc3)n2)c1`, for which the IC50 in the test with NCI-H460 was greater than 100 µM; in test [1], 0.55 µM; in test [7], 1.515 µM; in test [3] it was greater than 100 µM. For the same molecule, the “Ratio IC50” value in test [2] was found to be 3.1; in test [4] it was 2.56; in test [5] it was 7.05.

Turning to `CCCc1ccc(NC(=O)c2ccccc2NC(=O)c2ccccc2[N+](=O)[O-])cc1`, the IC50 (in the test on NCI-H460; in test [3]) was greater than 100 µM each time. For the same molecule, the “Ratio IC50” value is on record as 9.36 in test [2], 7.7 in test [4] and 11.75 in test [5].

Take `COc1cccc(-n2nnc(-c3ccccc3NC(=O)c3ccc(NC(C)=O)cc3)n2)c1`: the IC50 (in the test with NCI-H460; in test [3]) was greater than 100 µM in each case. Moreover, the “Ratio IC50” value stood at 6.16 in test [2], 5.58 in test [4] and 6.34 in test [5].

`COc1cccc(-n2nnc(-c3ccccc3NC(=O)Nc3ccc(N)cc3)n2)c1`: the IC50 with NCI-H460 is greater than 100 µM; in test [3], greater than 100 µM; in test [6], 0.571 µM. The “Ratio IC50” value in test [2] is given as 2.66; in test [4], 1.76; in test [5], 3.9.

For the molecule `CCCc1ccc(NC(=O)c2ccccc2NC(=O)c2ccc(OC)cc2)cc1`, the IC50 was greater than 100 µM with NCI-H460, 2.526 µM in test [7], greater than 100 µM in test [3] and 2.012 µM in test [6]. Moreover, the “Ratio IC50” value in test [2] worked out at 10; in test [4], 7.97; in test [5], 13.1.

In the case of `CCCc1ccc(NC(=O)c2ccccc2NC(=O)Nc2ccccc2[N+](=O)[O-])cc1`, the IC50 (in the test on NCI-H460; in test [3]) was greater than 100 µM in each case. The “Ratio IC50” value in test [2] is 11.92; in test [4], 5.21; in test [5], 17.03.

With `COc1cccc(-n2nnc(-c3ccccc3NC(=O)c3ccc(N=C=S)cc3)n2)c1`, the IC50 with NCI-H460 worked out at 44.7 µM; in test [7], 1.221 µM; in test [3], 59 µM. Also, the “Ratio IC50” value was 4.88 in test [2], 4.43 in test [4] and 5.68 in test [5].

Turning to `COc1cccc(-n2nnc(-c3ccccc3NC(=O)c3ccc(NC(=O)CBr)cc3)n2)c1`, the IC50 (in the test with NCI-H460; in test [3]) was greater than 100 µM in each case. Besides, the “Ratio IC50” value in test [2] is reported as 2.07; in test [4], 1.32; in test [5], 2.81.

As for `COc1cccc(-n2nnc(-c3ccccc3NC(=O)Nc3ccc(NC(=O)CBr)cc3)n2)c1`, the IC50 (in the test on NCI-H460; in test [3]) was greater than 100 µM throughout. Moreover, the “Ratio IC50” value worked out at 2.71 in test [2], 2.2 in test [4] and 3.71 in test [5].

Consider `CCCc1ccc(NC(=O)c2ccccc2NC(=O)Nc2ccc(OC)cc2)cc1`, for which the IC50 (in the test on NCI-H460; in test [3]) was greater than 100 µM throughout. Further, the “Ratio IC50” value in test [2] stood at 10.12; in test [4] it was 4.58; in test [5], 15.68.

Take `CCCc1ccc(C(=O)Nc2ccccc2-c2nnn(-c3cccc(OC)c3)n2)cc1`: the IC50 in the test with NCI-H460 is 27 µM; in test [3], 40.6 µM; in test [6], 0.207 µM. In addition, the “Ratio IC50” value in test [2] is given as 0.96; in test [4], 0.61; in test [5], 1.65.

For `COc1cccc(-n2nnc(-c3ccccc3NC(=O)Nc3ccc(NC(C)=O)cc3)n2)c1`, the IC50 in the test with NCI-H460 is greater than 100 µM; in test [3], greater than 100 µM; in test [6], 0.454 µM. Further, the results for the “Ratio IC50” value in test [2], in test [4] and in test [5] were 2.11, 1.51 and 2.92, respectively.

As to `COc1cccc(-n2nnc(-c3ccccc3NC(=O)Nc3cccc([N+](=O)[O-])c3)n2)c1`, the IC50 (in the test on NCI-H460; in test [3]) was greater than 100 µM throughout.

In the case of `COc1cccc(-n2nnc(-c3ccccc3NC(=O)Nc3ccc(N=[N+]=[N-])cc3)n2)c1`, the IC50 is greater than 100 µM in the test with NCI-H460, 0.685 µM in test [1] and greater than 100 µM in test [3]. Besides, the “Ratio IC50” value in test [2] was 3.21; in test [4] it was 3.19; in test [5], 4.25.

Consider `CCCc1ccc(NC(=O)c2ccccc2NC(=O)Nc2ccc(Br)cc2)cc1`, for which the IC50 (in the test on NCI-H460; in test [3]) was greater than 100 µM in each case. In addition, the “Ratio IC50” value in test [2] amounted to 9.87; in test [4], 4.43; in test [5], 12.35.

Turning to `COc1cccc(-n2nnc(-c3ccccc3NC(=O)c3cccc([N+](=O)[O-])c3)n2)c1`, the IC50 in the test with NCI-H460 amounted to 19.9 µM; in test [3], 25.4 µM; in test [6], 1.39 µM. Further, the “Ratio IC50” value in test [2] stood at 6.47; in test [4], 4.03; in test [5], 8.38.

As to `COc1ccc2c3c([nH]c2c1)[C@H](C=C(C)C)N1C(=O)[C@@H]2CCCN2C(=O)[C@@H]1C3` [FUMITREMORGIN], in test [1], the IC50 was determined as 0.321 µM. Moreover, the “Ratio IC50” value in test [2] is reported as 2.1; in test [4], 1.49; in test [5], 2.85.

Source of the values: ChEMBL document CHEMBL4043226, “Design, synthesis and biological evaluation of benzamide and phenyltetrazole derivatives with amide and urea linkers as BCRP inhibitors” (Bioorg Med Chem Lett, 2017).
